What was measured:
[1] = tested on: 786-O subcutaneous xenografts; assay: In vivo 786-O tumor growth model; conditions: female nude mice, 30 mg/kg p.o. qd, 21 days
Procedure: Female nude mice bearing 786-O subcutaneous xenografts were treated with Example 31 at 30 mg/kg p.o. qd or vehicle control. Treatments started 34 days post tumor inoculation and lasted 21 days. Values are provided as mean±SEM with a sample size of n=6 mice per group. The initial tumor volume at day 0 was approximately 260 mm^3.
Experiments were performed in female nude Crl:NU(NCr)-Foxnlnu-Homozygous mice (Charles River, Germany). Animals were 6-9 weeks of age at time of application of the compound. Animals were housed under Optimized Hygienic Conditions in Makrolon type III cages (max. 5 animals per cage) with free access to food and water. […]
Cell line and cell culture: 786-O and SKRC-01 cells were grown in 500 ml RPMI1640 Medium+5 ml L-Glutamine+50 ml FCS+5 ml Sodium Pyruvate+5 ml HEPES and incubated at 37° C. in a 5% CO2 humidified atmosphere. Cells were harvested with trypsin-EDTA, re-suspended in culture medium (with additives) and counted with a Casy® system. […]
Evaluation of antitumor activity: Tumor volumes were measured with calipers and determined according to the formula: length×diameter^2×π/6. In addition to presenting changes of tumor volumes over the course of treatments, antitumor activity is expressed as T/C % (mean change of tumor volume of treated animals/mean change of tumor volume of control animals)×100. […]

[2] = target: HIF2α PAS-B domain (236-350, biotinylated on the N-terminus) (Homo sapiens (Human), UniProt Q99814); assay: In vitro SPA with the PAS-B domain of HIF2α (competition binding with radio-ligand); conditions: versus corresponding enantiomer
Chain of HIF2α PAS-B domain (236-350, biotinylated on the N-terminus) (Q99814 236-350): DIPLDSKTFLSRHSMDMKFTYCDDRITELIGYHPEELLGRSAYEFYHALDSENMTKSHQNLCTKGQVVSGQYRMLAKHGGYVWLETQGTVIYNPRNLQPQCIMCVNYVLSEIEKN
Procedure: The assay buffer contained 50 mM Tris-HCl pH7 (Sigma), 20 mM NaCl (Fluka), 0.02% BSA (Sigma), 0.005% Triton X-100 (Pierce) and 1 mM DTT (Fluka). After a 30 min incubation period, 5 μL Streptavidin PVT SPA Beads (Perkin Elmer) at 1.2 mg/mL, diluted in the buffer, were added.

SMILES | anti-tumor activity [1] | IC50 in the Hif2α SPA assay, fold lower than for the corresponding (R)-enantiomer [2]
FC(F)OC1=CC(C(F)(F)F)=CN2C[C@@]3(CCC(F)(F)c4c3ccnc4Cl)N=C12 [Example 31, (S)-1′-chloro-8-(difluoromethoxy)-8′,8′-difluoro-6-(trifluoromethyl)-7′,8′-dihydro-3H,6′H-spiro[imidazo[1,2-a]pyridine-2,5′-isoquinoline]] | demonstrated | 
FC(F)OC1=CC(C(F)(F)F)=CN2C[C@@]3(CCOc4cc(C(F)(F)F)ccc43)N=C12 [Example 44, (S)-8′-(difluoromethoxy)-6′,7-bis(trifluoromethyl)-3′H-spiro[chroman-4,2′-imidazo[1,2-a]pyridine]] |  | greater than 700 fold
